One may read the Kb as the affinity of an antagonist, worked out from how it opposes an agonist. As usually defined, the Ki is the dissociation constant of the complex between target and ligand, obtained from inhibition or displacement.

The results in this text go back to patent US20160009697A1, “PYRIDINE DERIVATIVES AS 5-HT6 RECEPTOR ANTAGONISTS” (Selvita S.A., priority 2013, published 2016).

For test [1], the target named is T1, short form of human D2 receptor (Homo sapiens, UniProt P14416).
T1 construct: expressed in transfected cells; host or cells: CHO cells
Nature of the test: D2 functional assay (cAMP-Glo, CHO cells). Type of test: cell-based. As to conditions: forskolin 10 μM, read-out: D2 antagonist Kb. Here is the method:
Dopamine D2 receptor inhibits adenylyl cyclase activity. CHO cells (Chinese Hamster Ovary cell-line) transfected with short form of human D2 receptor were used for D2 functional testing. Cells were seeded at a density of 10 000 cells/well in white-walled 96-well plates one day before the experiment. Forskolin at 10 μM was used to increase the intracellular level of cAMP. Compounds were tested according to the procedure from cAMP-Glo™ kit manufacturer's instruction.

In another test the test system is human alpha1 receptor. As to the kind of experiment: Alpha1 functional assay (calcium response, LNCaP cells). The test is classed as cell-based. As to conditions: agonist noradrenaline, 30 min preincubation, Fluo-4NW calcium, read-out: Alpha1 antagonist Kb. The source says:
The alpha-1 (α1) adrenergic receptor is coupled to the Gq heterotrimeric G-protein that activates phospholipase C and the phosphatidylinositol (PIP2) signaling pathway. The pathway starts with stimulation of the receptor and further activation of phospholipase C (PLC). Inositol-1,4,5-triphosphate (IP3), which is one of the products of PLC activity, binds to IP3 receptor in smooth ER. Opening of IP3R, which acts as a calcium ion channel, causes an increase in Ca^2+ concentration in cytosol, which can be quantitatively measured using calcium-sensitive fluorescent dyes.
Alpha1 antagonism was measured in LNCaP (Human lymph node carcinoma of the prostate) cells expressing human alpha1 receptor. Cells were dispensed into 96-well assay plates at a density of 30 000 cells per well and, following over night recovery, assayed for calcium response. Tests were performed using Fluo-4NW Calcium Assay Kit (Molecular Probes #F36206) and standard testing procedure for this kit. Cells were preincubated with test compound for 30 min, then endogenous agonist noradrenaline was added. Fluorescence was measured by FLEXstation 3 (Molecular Devices). The apparent dissociation constants (Kb) were calculated by means of GraphPhad Prism 5 software using the modified Cheng Prusoff equation (Kb=IC50/(1+(A/EC50A)), where A=concentration of reference agonist in the assay and EC50A=EC50 value of the reference agonist). For each IC50 determination, agonist dose response curve is run in parallel with the antagonist, on the same experimental plate. Curves maximal and minimal values should be reached in assays, and it is checked if Prism uses proper maximal and minimal values for curve fitting.

The target in test [2] is T2, human 5-HT6 (Homo sapiens, UniProt P50406). As to the kind of experiment: 5-HT6 functional assay (calcium response, Chem-10 host cells). The test is classed as cell-based. Further details: host or cells: Chem-10 host cells, co-expressing a recombinant promiscuous G protein. The following applies: agonist serotonin, 30 min preincubation, Fluo-4NW calcium, read-out: 5-HT6 antagonist Kb. The source says:
The serotonin receptor 5-HT6 is a Gs coupled receptor. In the brain it responds to serotonin and other agonists by increasing adenyl cyclase mediated production of cyclic AMP. 5-HT6 can be also functionally tested using different coupling types. Millipore's cloned human 5-HT6-expressing cell line is made in the Chem-10 host, which supports high levels of recombinant 5-HT6 expression on the cell surface and contains optimized levels of a recombinant promiscuous G protein to couple the receptor to the calcium signaling pathway. Cells were thawed, resuspended in media, dispensed into 96-well assay plates at a density of 27500 cells per well and, following over night recovery, assayed for calcium response. Tests were performed using Fluo-4NW Calcium Assay Kit (Molecular Probes #F36206) and standard testing procedure for this kit. Cells were preincubated with test compound for 30 min, then endogenous agonists serotonin was added. Fluorescence was measured by FLEXstation 3 (Molecular Devices). The apparent dissociation constants (Kb) were calculated by means of GraphPhad Prism 5 software using the modified Cheng Prusoff equation (Kb=IC50/(1+(A/EC50A)), where A=concentration of reference agonist in the assay and EC50A=EC50 value of the reference agonist). For each IC50 determination, agonist dose response curve is run in parallel with the antagonist, on the same experimental plate. Curves maximal and minimal values should be reached in assays and it is checked if Prism uses proper maximal and minimal values for curve fitting.

Another test addresses T3, human H1 receptor (Homo sapiens, UniProt P35367).
T3 construct: expressed in transfected cells; host or cells: CHO cells
Nature of the test: H1 functional assay (calcium response, CHO cells). Type of test: cell-based. The following applies: agonist histamine, 30 min preincubation, Fluo-4NW calcium, read-out: H1 antagonist Kb. The source says:
The histamine receptor H1 is linked to an intracellular G-protein (Gq) that activates phospholipase C and the phosphatidylinositol (PIP2) signaling pathway. The pathway starts with stimulation of the receptor and further activation of phospholipase C (PLC). Inositol-1,4,5-triphosphate (IP3), which is one of the products of PLC activity, binds to IP3 receptor in smooth ER. Opening of IP3R, which acts as a calcium ion channel, causes an increase in Ca^2+ concentration in the cytosol, which can be quantitatively measured using calcium-sensitive fluorescent dyes.
H1 antagonism was measured in CHO cells (Chinese Hamster Ovary cell-line) transfected with pcDNA for human H1 receptor. Cells were dispensed into 96-well assay plates at a density of 25 000-30 000 cells per well and, following over night recovery, assayed for calcium response. Tests were performed using Fluo-4NW Calcium Assay Kit (Molecular Probes #F36206) and standard testing procedure for this kit. Cells were preincubated with test compound for 30 min, then endogenous agonist histamine was added. Fluorescence was measured by FLEXstation 3 (Molecular Devices). The apparent dissociation constants (Kb) were calculated by means of GraphPhad Prism 5 software using the modified Cheng Prusoff equation (Kb=IC50/(1+(A/EC50A)), where A=concentration of reference agonist in the assay and EC50A=EC50 value of the reference agonist). For each IC50 determination, agonist dose response curve is run in parallel with the antagonist, on the same experimental plate. Curves maximal and minimal values should be reached in assays and it is checked if Prism uses proper maximal and minimal values for curve fitting.

The target of another test is T4, D2 receptor (Homo sapiens, UniProt P14416).
T4 construct: expressed in transfected cells; membrane homogenates
As to the kind of experiment: Dopamine receptor D2 binding affinity, competitive radioligand binding with [3H]methyl-spiperone. The following applies: membranes of recombinant cells, [3H]methyl-spiperone 0.2 nM, 60 min at 37° C. How it is done:
Dopamine receptor D2 binding affinity of compounds of formula I was also evaluated. […] After a 60 minute incubation at 37° C., the incubation was terminated by vacuum filtration. The filters were washed with buffer and the filters were counted for radioactivity using liquid scintillation spectrometry. Concentrations ranging from 10^−12 M to 10^−5 M of the test compound were evaluated. […] Binding in the presence of varying concentrations of test compound is expressed as a percentage of specific binding in the absence of test compound. The results are plotted as log % bound versus log concentration of test compound. […] A linear regression line of data points is plotted, from which the IC50 value is determined and the Ki value is determined based upon the following equation: […]

Test [3] concerns the target T2, human 5-HT6. As to the kind of experiment: 5-HT6 binding affinity, competitive radioligand binding with [3H]-LSD.

T2 sequence (P50406 whole entry): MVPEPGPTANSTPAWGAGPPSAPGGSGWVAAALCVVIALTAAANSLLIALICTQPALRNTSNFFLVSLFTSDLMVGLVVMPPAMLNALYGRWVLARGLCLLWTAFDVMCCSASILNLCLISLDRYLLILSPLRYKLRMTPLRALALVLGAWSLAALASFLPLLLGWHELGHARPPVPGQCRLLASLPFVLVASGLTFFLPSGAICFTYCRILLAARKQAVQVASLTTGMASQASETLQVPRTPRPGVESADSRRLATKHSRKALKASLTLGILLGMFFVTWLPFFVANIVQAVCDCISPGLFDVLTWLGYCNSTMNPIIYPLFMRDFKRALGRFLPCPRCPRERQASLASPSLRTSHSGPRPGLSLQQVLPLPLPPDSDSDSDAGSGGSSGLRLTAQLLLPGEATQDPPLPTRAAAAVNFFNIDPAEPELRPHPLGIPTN
T3 sequence (P35367 whole entry): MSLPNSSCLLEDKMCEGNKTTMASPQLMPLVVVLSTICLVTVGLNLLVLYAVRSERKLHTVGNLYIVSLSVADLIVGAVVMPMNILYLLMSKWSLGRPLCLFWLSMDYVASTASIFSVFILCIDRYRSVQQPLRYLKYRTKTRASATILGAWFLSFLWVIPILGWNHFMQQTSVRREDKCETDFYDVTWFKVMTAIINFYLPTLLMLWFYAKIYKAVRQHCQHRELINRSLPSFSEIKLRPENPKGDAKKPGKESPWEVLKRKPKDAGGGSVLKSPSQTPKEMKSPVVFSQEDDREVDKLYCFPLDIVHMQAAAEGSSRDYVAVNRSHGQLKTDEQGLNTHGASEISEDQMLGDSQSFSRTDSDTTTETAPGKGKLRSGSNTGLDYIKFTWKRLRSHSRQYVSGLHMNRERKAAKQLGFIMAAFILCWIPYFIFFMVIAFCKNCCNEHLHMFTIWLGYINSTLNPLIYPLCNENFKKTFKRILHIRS
T4 sequence (P14416 whole entry): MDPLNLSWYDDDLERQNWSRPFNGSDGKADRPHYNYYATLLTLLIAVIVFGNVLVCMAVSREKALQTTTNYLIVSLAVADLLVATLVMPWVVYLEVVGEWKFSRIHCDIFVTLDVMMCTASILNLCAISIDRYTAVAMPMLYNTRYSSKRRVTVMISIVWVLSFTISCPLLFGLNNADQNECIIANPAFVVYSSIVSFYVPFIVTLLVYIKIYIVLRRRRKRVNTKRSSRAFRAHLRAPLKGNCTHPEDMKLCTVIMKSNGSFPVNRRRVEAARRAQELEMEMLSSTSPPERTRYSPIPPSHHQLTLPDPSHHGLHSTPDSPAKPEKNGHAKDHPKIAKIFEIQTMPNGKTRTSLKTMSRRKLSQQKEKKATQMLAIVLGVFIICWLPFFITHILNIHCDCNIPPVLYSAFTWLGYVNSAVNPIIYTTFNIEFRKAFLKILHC
T1 sequence (P14416 1-414 isoform P14416-2): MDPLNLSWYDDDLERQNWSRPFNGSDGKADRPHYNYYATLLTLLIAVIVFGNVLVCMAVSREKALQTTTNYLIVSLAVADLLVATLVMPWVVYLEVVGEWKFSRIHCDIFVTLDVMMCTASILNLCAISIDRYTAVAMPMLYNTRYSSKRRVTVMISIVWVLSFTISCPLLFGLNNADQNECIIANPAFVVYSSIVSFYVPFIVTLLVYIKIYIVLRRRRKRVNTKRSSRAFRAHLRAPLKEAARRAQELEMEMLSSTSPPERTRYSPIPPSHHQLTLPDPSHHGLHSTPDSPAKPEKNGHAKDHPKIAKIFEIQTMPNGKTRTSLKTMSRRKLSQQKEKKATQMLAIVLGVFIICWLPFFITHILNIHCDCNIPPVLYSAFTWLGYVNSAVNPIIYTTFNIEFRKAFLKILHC

Take `CN1CCN(c2cc(-c3ccc4ccccc4n3)cc(CC3CCOCC3)n2)CC1` [Example 2, 2-[2-(4-Methylpiperazin-1-yl)-6-(oxan-4-ylmethyl)pyridin-4-yl]quinoline]: the Kb in test [1] was above 3500 nM; in the test on human alpha1 receptor, above 2000 nM; at human 5-HT6 [2], 204 nM; on human H1 receptor it was 462 nM. For the same compound, the Ki at D2 receptor turned out to be 4100 nM; on human 5-HT6 [3] it was 39.6 nM.

In the case of `CN1CCN(c2cc(-c3ccccn3)cc(CC3CCOCC3)n2)CC1` [Example 3, 1-Methyl-4-[6-(oxan-4-ylmethyl)-4-(pyridin-2-yl)pyridin-2-yl]piperazine], the Kb in test [1] was above 2000 nM; in the test with human alpha1 receptor, 83.8 nM; on human 5-HT6 [2], 81.8 nM; on human H1 receptor it was above 5000 nM. In addition, the Ki at D2 receptor stood at 1180 nM; on human 5-HT6 [3] it was 22.2 nM.

In the case of `CN1CCN(c2cc(-c3cscn3)cc(CC3CCOCC3)n2)CC1` [Example 4, 1-Methyl-4-[6-(oxan-4-ylmethyl)-4-(1,3-thiazol-4-yl)pyridin-2-yl]-piperazine], the Kb in test [1] was 781 nM; in the test with human alpha1 receptor it was 203 nM; on human 5-HT6 [2], 1.97 nM; on human H1 receptor, above 5000 nM. In addition, the inhibition constant (Ki) is above 10000 nM at D2 receptor and 14.3 nM at human 5-HT6 [3].

For `COc1ccc(-c2cc(CC3CCOCC3)nc(N3CCN(C)CC3)c2)c(F)c1` [Example 5, 1-[4-(2-Fluoro-4-methoxyphenyl)-6-(oxan-4-ylmethyl)pyridin-2-yl]-4-methylpiperazine], the Kb is above 2000 nM in test [1], 171 nM in the test with human alpha1 receptor, 5.06 nM on human 5-HT6 [2] and 1230 nM at human H1 receptor. Further, the Ki on D2 receptor turned out to be 1250 nM; at human 5-HT6 [3], 22.8 nM.

As for `COc1ccc(-c2cc(CC3CCOCC3)nc(N3CCC(N)CC3)c2)cc1` [Example 6, 1-[4-(4-Methoxyphenyl)-6-(oxan-4-ylmethyl)pyridin-2-yl]piperidin-4-amine], the Kb in test [1] is above 3500 nM; in the test on human alpha1 receptor it was above 2000 nM; on human 5-HT6 [2], above 1000 nM; at human H1 receptor, above 1000 nM. For the same compound, the Ki is above 10000 nM at D2 receptor and 38.8 nM on human 5-HT6 [3].

For the compound `COc1ccc(-c2cc(C(C)C3CCOCC3)nc(N3CCN(C)CC3)c2)cc1` (stereo not drawn) [Example 7, 1-[4-(4-Methoxyphenyl)-6-[1-(oxan-4-yl)ethyl]pyridin-2-yl]-4-methyl-piperazine], the Kb in test [1] was 340 nM; in the test with human alpha1 receptor, 29.3 nM; on human 5-HT6 [2], 0.01 nM; on human H1 receptor, above 2000 nM. For the same compound, the figures for the Ki on D2 receptor and on human 5-HT6 [3] were above 10000 nM and 12.2 nM, respectively.

Take `COc1ccc(-c2cc(CC3CCOCC3)nc(N3CCNC(C)(C)C3)c2)cc1` [Example 8, 1-[4-(4-Methoxyphenyl)-6-(oxan-4-ylmethyl)pyridin-2-yl]-3,3-dimethylpiperazine]: the antagonist dissociation constant (Kb) in test [1] is above 3500 nM; in the test with human alpha1 receptor, 1600 nM; at human 5-HT6 [2], 4.7 nM; at human H1 receptor, 19.4 nM. Moreover, the Ki on D2 receptor is above 10000 nM; on human 5-HT6 [3], 36.1 nM.
